According to patent US7122326B2 (Universite Louis Pasteur, priority 2001, dated 2006):
“Also recorded” adds a separate entry of the source.

Legend:
[1] = tested on: rat; assay: Dopaminergic stereotypies after intracerebral injection; conditions: in vivo
Procedure: The product was injected by the intracerebroventricular route (i.c.v.) on the one hand, and in defined brain structures on the other hand: ventral tegmental area (A10), substantia nigra (A9) or nucleus accumbens. […] After disappearance of the stereotypies (30±15 minutes), reinjection of XA induced the same effects.
The following stereotypies are observed: licking, chewing, hyperactivity, exploring, standing, grooming, burrowing, stretching and sniffing.
These behaviors developed two minutes after the intracerebral injection and lasted for 30 to 40 minutes. One hour after such behaviors disappeared, they could be re-induced by another injection.

[2] = tested on: xanthurenic acid binding site(s); assay: [3H]-XA binding to synaptic membranes, without ions; set-up: species or system rat
[3] = tested on: rat; assay: Open field test of global reactivity (XA); conditions: in vivo
[4] = tested on: XA transport system; assay: XA transport in differentiated NCB-20 cells; assay type: cell-based
Procedure: The cell culture was prepared by using a culture dish of NCB-20 cells at 80% confluence. The culture medium was removed and replaced with 10 ml of DMEM supplemented with 10% FCS. Cells were then detached and suspended by repeated passage of the medium through a 2 mm gauge needle. Cells were then counted in a hemocytometer. The final suspension was adjusted to a cell density of 3.10^4 cells/ml in DMEM medium supplemented with 10% FCS and 1 mM cAMP. Petri dishes were seeded with 2 ml of this suspension and incubated at 37° C. in a moisture-saturated CO2 atmosphere. Cells were used four days after inoculation.
The culture medium of 4-day NCB-20 cell cultures differentiated in cAMP was replaced by one of the buffer solutions described hereinabove (Krebs with or without Na^+, to respectively evaluate Na^+-dependent active transport and passive transport, which occurs mainly through diffusion) according to the type of experiment planned. Culture dishes were placed in a water bath at 37° C. for 10 minutes. The buffer was then replaced by the same buffer solution containing [^3H]-XA and XA at concentrations ranging from […]. [^3H]-XA was present at very low concentration and served only as a tracer of the cold (non-radiolabelled) XA. After 1 minute of incubation, the solutions were aspirated and the cells washed three times for 10 seconds with 1 ml of the same buffer (Krebs with or without Na^+), kept on ice. Active transport requires energy (ATP) and is markedly slowed at temperatures below 37° C. The washed cell layer was frozen in dishes then, the next day, distilled water was added to obtain a solution of cellular debris containing the intracellular radiolabel ([^3H]-XA). Freezing facilitated homogenization by repeated passage of the solution through a pipette. A 900 μl aliquot was added to scintillation fluid (Rotiszint®, 4 ml). The remainder of the solution was sampled to assay protein by the BCA method (Uptima). The radioactivity measured in the scintillation counter was converted by means of a suitable calibration curve into picomoles of XA taken up by the cells per mg of protein.
For each incubation time, transport was measured on nine dishes of NCB-20 cells with Na^+ and without Na^+. Ten different time points were studied: 0-10-30 seconds and 1, 2, 3, 5, 8, 10, 12 minutes. Four different experiments were carried out.
For each XA concentration, XA transport was measured on nine dishes of NCB-20 cells with Na^+ and nine dishes without Na^+. Seven different concentrations were tested: 1-5-12.5-25-50-100-200 μM. Four independent experiments were carried out.
Four milliliters of scintillator were added to the tubes containing 900 μl of the cell suspension obtained. The control tube contained 900 μl of doubly-distilled water, and the tubes used to measure specific activity contained 10 μl of the radioactive solutions used as reagent during the experiment and 890 μl of doubly-distilled water. The tubes were closed, vortexed and left overnight at 4° C. before being counted in the scintillation counter. This count measures intracellular radioactivity which is directly proportional to the quantity of XA that entered the cell through passive or active transport. To calculate the amount of active transport, passive transport (Krebs without Na^+) is simply subtracted from total transport (Krebs with Na^+).
Other endogenous molecules which might be transported by the XA transporter were tested. […] The results are shown in the histogram in FIG. 34 as the percentage entering the cells relative to transport in the presence of radiolabelled XA alone (=100%).

[5] = tested on: Grp 94 and calreticulin expression; conditions: cited from earlier work
[6] = target: xanthurenic acid binding site(s); assay: [3H]-XA binding to synaptic membranes in the presence of copper ions; set-up: species or system rat; conditions: pH 6.5
[7] = tested on: rat; assay: Porsolt test (swimming test); conditions: in vivo
Procedure: The following doses were used: 50, 100, 150 and 200 mg/kg i.p.
This test has been validated with imipramine 30 mg/kg. The test described by Porsolt et al., Eur. J. Pharmacol. 1978, 47: 379–391, was used.

[8] = rat, in vivo
Procedure: Methods: Rats were given an i.p. injection of XA 50 mg/kg and then sacrificed 30 minutes later by microwave irradiation. Brains were dissected and XA was assayed in 20 different regions of the brain.

[9] = tested on: rat; conditions: in vivo
[10] = tested on: rat; assay: Social interactions between two congeners; conditions: in vivo
Text: This tendency was confirmed by a test evaluating social interactions between two congeners (Ramos et al., Behav. Brain Res., 1997, 85: 57–69).

[11] = in vivo, ip; cited from earlier work
[12] = tested on: rat; assay: Object recognition test; conditions: in vivo
Procedure: Ennaceur and Delacour, Behav. Brain Res. 1988, 31: 47–59.
Doses of 37.5 and 75 mg/kg i.p. were used.

[13] = tested on: rat; conditions: in vivo; cited from earlier work
[14] = tested on: mice; conditions: mouse, in vivo; cited from earlier work
[15] = read-out: IC50, two site binding model, first site
[16] = read-out: IC50, two site binding model, second site

O=C(O)c1cc(O)c2cccc(O)c2n1 [XA, xanthurenic acid]
stereotypies [1]: dose-related stereotypies were observed; also recorded: induced dose-dependent stereotypies | time to disappearance of the stereotypies [1]: 30 ± 15 min | kob (observed association rate) ([2]; pH 7.4): 0.53 ± 0.16 min⁻¹ | time to binding equilibrium ([2]; pH 7.4): 10 to 15 min | Kd ([2]; pH 7.4, read-out: Kd (saturation experiment)): 743 nM | IC50 [2, 15]: 0.3 µM | IC50 [2, 16]: 57 µM | Kd ([2]; read-out: Kd=koff/kon): ~330 nM | doses to obtain an anxiolytic effect in animals [3]: less than 50 mg/kg | exploration of the center of the cage / open field [3]: significantly increased; also recorded: promotes movement of the animal to the center of the lighted open field | sedation in the open field test [3]: absence of sedation | increase of transport in the presence of sodium [4]: about 20% | Km ([4]; read-out: Km of intracellular transport): 105 µM | expression of Grp 94 and of calreticulin [5]: induces an increase in the expression | xanthurenic acid concentrations required to produce these effects [5]: in the millimolar range | IC50 [6, 15]: 1 µM | IC50 [6, 16]: 114 µM | Kd ([6]; read-out: Kd (saturation experiment)): 7.56 µM | cumulative duration of immobility [7]: statistically significant decrease in the cumulative duration of immobility; also recorded: duration of immobility decreases with increasing doses | Brain regions where XA accumulated [8]: accumulated primarily in the frontal and prefrontal cortex (PFC), temporal and parietal cortex, amygdala, dopaminergic nuclei and in the striatum | amplitude of the EEG waves [9]: reduction in the amplitude of the EEG waves | decrease in body temperature [9]: −0.5 to −2 °C | duration of social interactions [10]: significant increase in the duration of social interactions; also recorded: induces an increase in the duration of social interactions | sedation in the social interaction test [10]: significant sedative effect | latency time to onset of epileptic seizures [11]: prolonged the latency time to onset of epileptic seizures | object recognition score [12]: significant increase in the object recognition score | ECG [13]: does not modify the ECG | head twitch behavior [14]: does not induce head twitch behavior
